Test [1] deals with T1, human sphingosine-1-phosphate receptor 1 (S1P1) (Homo sapiens, UniProt P21453). Put plainly: β-Arrestin2 recruitment assay (PathHunter), S1P1 CHO-K1 cells. It counts as cell-based. Conditions: for Emax: efficacy normalized to maximum efficacy of fingolimod, read-out: hS1P1 B-arrestin2 SPAN; for EC50: β-arrestin2 recruitment, read-out: hS1P1 B-arrestin2 pEC50 (converted). In outline:
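CHO-K1 cells co-expressing EA-β-arrestin2 and ProLink-tagged human S1P1 plated overnight, then stimulated 60 min at 37 °C. Enzyme-fragment complementation (β-galactosidase) detected after 1 h at room temperature by luminescence; values normalized to fingolimod.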
Target sequence in this assay (P21453 whole entry, the tested form may be a part): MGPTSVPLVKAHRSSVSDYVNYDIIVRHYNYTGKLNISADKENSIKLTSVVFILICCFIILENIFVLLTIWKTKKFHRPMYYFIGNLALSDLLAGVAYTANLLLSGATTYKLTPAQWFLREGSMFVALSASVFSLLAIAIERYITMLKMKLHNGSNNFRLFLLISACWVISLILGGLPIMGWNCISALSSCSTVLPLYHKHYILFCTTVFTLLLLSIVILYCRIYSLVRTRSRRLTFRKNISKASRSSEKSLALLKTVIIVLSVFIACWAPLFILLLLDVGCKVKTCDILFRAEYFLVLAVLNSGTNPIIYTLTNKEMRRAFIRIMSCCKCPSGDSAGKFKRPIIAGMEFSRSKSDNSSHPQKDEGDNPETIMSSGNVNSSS
Target sequence in this assay (P32121 whole entry partner, the tested form may be a part): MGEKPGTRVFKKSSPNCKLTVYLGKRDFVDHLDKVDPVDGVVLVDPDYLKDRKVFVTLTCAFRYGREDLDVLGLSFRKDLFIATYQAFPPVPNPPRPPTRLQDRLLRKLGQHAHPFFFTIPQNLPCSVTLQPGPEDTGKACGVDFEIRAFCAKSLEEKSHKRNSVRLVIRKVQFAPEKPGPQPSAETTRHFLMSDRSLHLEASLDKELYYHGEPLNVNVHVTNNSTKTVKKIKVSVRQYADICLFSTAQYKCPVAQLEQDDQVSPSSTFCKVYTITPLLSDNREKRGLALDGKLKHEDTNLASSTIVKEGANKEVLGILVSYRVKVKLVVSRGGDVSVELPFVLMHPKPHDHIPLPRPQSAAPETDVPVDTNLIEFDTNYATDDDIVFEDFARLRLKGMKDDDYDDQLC

Test [2] has as its target T1, human sphingosine-1-phosphate receptor 1 (S1P1). Put plainly: Inhibition of cAMP production (HTRF cAMP HiRange), S1P1 CHO-K1 cells. The following applies: for Emax: CHO-K1, efficacy normalized to maximum efficacy of fingolimod, read-out: hS1P1 CAMP SPAN; for EC50: read-out: hS1P1 CAMP pEC50 (converted). Type of test: cell-based. An outline of the steps: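 CHO-K1 cells co-expressing human S1P1 (C-terminal ProLink tag) and EA-β-arrestin2, plated overnight; after 30 min compound incubation at 37 °C, intracellular cAMP measured by HTRF TR-FRET following 1 h at room temperature. Values normalized to fingolimod.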
Target sequence in this assay (P21453 whole entry, the tested form may be a part): as the sequence (P21453 whole entry, the tested form may be a part) above
(In general: cAMP levels reflect the balance of adenylyl cyclase and phosphodiesterase activity.)

The mark [3] stands for this setting: inhibition of cAMP production, S1P1.
The mark [4] stands for this setting: CHO-K1, β-arrestin2 recruitment.
[5] abbreviates: inhibition of cAMP production, potency.

With `Cc1ccccc1-c1csc(-c2ccc3c(ccn3C(C)C)n2)n1` [Compound 409, 2-(1-isopropyl-pyrrolo [3,2-b]pyridin-5-yl)-4-(o-tolyl)thiazole], the Emax in test [1] (CHO-K1) is below 75%; in test [2] it was above 75%. For the same molecule, the EC50 in test [1] (S1P1) was above 10 µM; in test [2] (setting [3]) it was above 0.316 µM.

As to `O=C1CC2(CCC(F)(F)CC2)Oc2ccc(-c3nc(-c4ccncc4)no3)cc21` [Compound 217, 4′,4′-difluoro-6-[3-(pyridin-4-yl)-1,2,4-oxadiazol-5-yl]-3,4-dihydrospiro[1-benzopyran-2,1′-cyclohexane]-4-one], the Emax in test [1] (setting [4]) and in test [2] (inhibition of cAMP production) was below 75% each time. In addition, the EC50 in test [1] (potency) is above 10 µM; in test [2] (setting [5]), above 0.316 µM.

Turning to `CCCn1nnc2cc(-c3nc(-c4ccc(F)cc4)no3)ccc21` [Compound 5, 5-[3-(4-fluorophenyl)-1,2,4-oxadiazol-5-yl]-1-propyl-1H-1,2,3-benzotriazole], the Emax in test [1] (setting [4]) and in test [2] (inhibition of cAMP production) was below 75% in each case. Besides, the EC50 in test [1] (potency) is above 10 µM; in test [2] (setting [5]), above 0.316 µM.

Consider `CCC1(CC)CC(=O)c2cc(-c3nc(-c4cncc(NC(C)=O)c4)no3)ccc2O1` [Compound 538, N-(5-(5-(2,2-diethyl-4-oxochroman-6-yl)-1,2,4-oxadiazol-3-yl)pyridin-3-yl)acetamide], for which the Emax in test [1] (CHO-K1) and in test [2] was below 75% each time. Further, the EC50 in test [1] (S1P1) was below 10 µM; in test [2] (setting [3]), below 0.316 µM.

Take `CC(C)n1ccc2cc(-c3noc(-c4cccnc4)n3)ccc21` [Compound 396, 3-(1-isopropyl-1H-indol-5-yl)-5-(pyridin-3-yl)-1,2,4-oxadiazole]: the Emax in test [1] (CHO-K1) is above 75%; in test [2], below 75%. The results for the EC50 in test [1] (S1P1) and in test [2] (setting [3]) were above 10 µM and above 0.316 µM, respectively.

As for `C=CCn1nnc2cc(-c3noc(-c4ccccc4Br)n3)ccc21` [Compound 42, 3-(1-allyl-1H-benzo[d][1,2,3]triazol-5-yl)-5-(2-bromo-phenyl)-1,2,4-oxadiazole], the Emax in test [1] (setting [4]) and in test [2] (inhibition of cAMP production) was above 75% throughout. In addition, the EC50 is above 10 µM in test [1] (potency) and above 0.316 µM in test [2] (setting [5]).

As to `COc1cc(NC(C)=O)ccc1-c1nc(-c2ccncc2)no1` [Compound 582, N-{3-methoxy-4-[3-(pyridin-4-yl)-1,2,4-oxadiazol-5-yl]phenyl}acetamide], the Emax was below 75% in test [1] (CHO-K1) and above 75% in test [2]. Besides, the EC50 in test [1] (S1P1) was above 10 µM; in test [2] (setting [3]) it was above 0.316 µM.

In the case of `CC(C)(O)Cn1nnc2cc(-c3nc(-c4ccc5nonc5c4)no3)ccc21` [Compound 590, 1-{5-[3-(2,1,3-benzoxa-diazol-5-yl)-1,2,4-oxadiazol-5-yl]-1H-1,2,3-benzotriazol-1-yl}-2-methylpropan-2-ol], the Emax in test [1] (CHO-K1) and in test [2] was below 75% in each case. Besides, the EC50 was above 10 µM in test [1] (S1P1) and above 0.316 µM in test [2] (setting [3]).

For the molecule `COc1ccc(-c2nc(-c3ccc4c(c3)nnn4C(C)(C)CO)no2)c(C)c1` [Compound 610, 2-(5-(5-(4-methoxy-2-methylphenyl)-1,2,4-oxadiazol-3-yl)-1H-benzo[d] [1,2,3]triazol-1-yl)-2-methylpropan-1-ol], the Emax in test [1] (CHO-K1) is above 75%; in test [2], below 75%. Besides, the figures for the EC50 in test [1] (S1P1) and in test [2] (setting [3]) were above 10 µM and above 0.316 µM, respectively.

For the molecule `CC(C)Nc1ccc(-c2nc(-c3ccc4c(c3)C(=O)NCC4)no2)cc1C#N` [Compound 514, 2-(isopropylamino)-5-(3-(l-oxo-1,2,3,4-tetra-hydroisoquinolin-7-yl)-1,2,4-oxadiazol-5-yl)benzonitrile], the Emax in test [1] (CHO-K1) was below 75%; in test [2] it was above 75%. In addition, the EC50 in test [1] (S1P1) was below 10 µM; in test [2] (setting [3]), below 0.316 µM.

With `CCC1(CC)CC(=O)c2cc(-c3nc(-c4cncc(C)c4)no3)ccc2O1` [Compound 563, 2,2-diethyl-6-(3-(5-methylpyridin-3-yl)-1,2,4-oxadiazol-5-yl)chroman-4-one], the Emax in test [1] (CHO-K1) was below 75%; in test [2] it was above 75%. In addition, the EC50 in test [1] (S1P1) is below 10 µM; in test [2] (setting [3]) it was below 0.316 µM.

For the molecule `CCC1(CC)CC(=O)c2cc(-c3nc(-c4ccc(S(=O)(=O)NC)cc4)no3)ccc2O1` [Compound 266, 4-(5-(2,2-diethyl-4-oxochroman-6-yl)-1,2,4-oxadiazol-3-yl)-N-methylbenzene-sulfonamide], the Emax in test [1] (setting [4]) and in test [2] (inhibition of cAMP production) was above 75% in each case. Further, the results for the EC50 in test [1] (potency) and in test [2] (setting [5]) were below 10 µM and above 0.316 µM, respectively.

With `CCC1(CC)CC(=O)c2cc(-c3nc(-c4cccc(Cl)c4)no3)ccc2O1` [Compound 261, 6-[3-(3-chlorophenyl)-1,2,4-oxadiazol-5-yl]-2,2-diethyl-chroman-4-one], the Emax in test [1] (setting [4]) is below 75%; in test [2] (inhibition of cAMP production) it was above 75%. The values for the EC50 in test [1] (potency) and in test [2] (setting [5]) were below 10 µM and above 0.316 µM, respectively.

`CC(C)(CO)Cn1nnc2cc(-c3noc(-c4ccccc4Cl)n3)ccc21` [Compound 526, 3-(5-(5-(2-chloro-phenyl)-1,2,4-oxadiazol-3-yl)-1H-benzo[d][1,2,3]triazol-1-yl)-2,2-dimethylpropan-1-ol]: the Emax in test [1] (CHO-K1) and in test [2] was above 75% each time. The figures for the EC50 in test [1] (S1P1) and in test [2] (setting [3]) were above 10 µM and above 0.316 µM, respectively.

Regarding `COc1ccccc1-c1nc(-c2ccc3c(c2)nnn3CC(C)(C)CO)no1` [Compound 525, 3-(5-(5-(2-methoxy-phenyl)-1,2,4-oxadiazol-3-yl)-1H-benzo[d][1,2,3]triazol-1-yl)-2,2-dimethyl-propan-1-ol], the Emax in test [1] (CHO-K1) and in test [2] was above 75% in each case. Moreover, the EC50 in test [1] (S1P1) is above 10 µM; in test [2] (setting [3]) it was above 0.316 µM.

Turning to `CCC1(CC)CC(=O)c2cc(-c3nc(-c4ncccn4)no3)ccc2O1` [Compound 640, 2,2-diethyl-6-(3-(pyrimidin-2-yl)-1,2,4-oxadiazol-5-yl)chroman-4-one], the Emax in test [1] (CHO-K1) is below 75%; in test [2], above 75%. In addition, the EC50 in test [1] (S1P1) was above 10 µM; in test [2] (setting [3]), above 0.316 µM.

On to `CC(C)n1nnc2cc(-c3noc(-c4cccc(F)c4)n3)ccc21` [Compound 64, 5-(3-fluorophenyl)-3-(1-isopropyl-benzotriazol-5-yl)-1,2,4-oxadiazole], for which the Emax in test [1] (setting [4]) and in test [2] (inhibition of cAMP production) was above 75% each time. The EC50 is above 10 µM in test [1] (potency) and below 0.316 µM in test [2] (setting [5]).

As for `Cc1nc2cc(-c3nnc(-c4ccc(NC(C)C)c(C#N)c4)o3)ccc2[nH]1` [Compound 560, 5-[5-(2-methy1-1H-1,3-benzodiazol-5-yl)-1,3,4-oxadiazol-2-yl]-2-[(propan-2-yl)amino]benzonitrile], the Emax in test [1] (CHO-K1) and in test [2] was above 75% in each case. In addition, the EC50 is below 10 µM in test [1] (S1P1) and below 0.316 µM in test [2] (setting [3]).

As to `CC(C)Nc1ccc(-c2nnc(-c3ccc4oc(=O)[nH]c4c3)o2)cc1C#N` [Compound 637, 5-[5-(2-oxo-2,3-dihydro-1,3-benzoxazol-5-yl)-1,3,4-oxadiazol-2-yl]-2-[(propan-2-yl)amino]benzonitrile], the Emax in test [1] (CHO-K1) and in test [2] was above 75% in each case. In addition, the EC50 was below 10 µM in test [1] (S1P1) and below 0.316 µM in test [2] (setting [3]).

These data come from patent US20230114241A1, “METHODS OF TREATING EPILEPSY USING THE SAME” (Trevena, Inc., priority 2019, published 2023).
